Results as given in patent publication US20240295544A1 (priority 2020, published 2024).

System: CMs

CC(C)C[C@H](NC(=O)[C@H](Cc1ccccc1)NC(=O)c1cnccn1)B(O)O [bortezomib]
fragmentation frequency and severity compared with SARS-CoV-2 (human): much more infrequently and less severely than SARS-CoV-2
induction of myofibril fragmentations in CMs (no virus, bortezomib only at high doses (1 uM and 10 uM tested), doxorubicin 20 nM and 200 nM (Table 1A)): induced myofibril fragmentations
